Laboratory results from a melting point compilation (Tetko et al.; mined from patent text by program, amines drawn as free bases though some values may be those of a salt).

| Structure (SMILES) | melting point |
| --- | --- |
| CCOCc1nc2c(N)nc3ccccc3c2n1CC(C)(C)CS(N)(=O)=O | 229 to 231 °C |
| CCCCCc1c(-c2ccc3cc(O)ccc3c2)n(Cc2ccccc2)c2ccccc12 | 96 to 100 °C |
| Cc1ccc(C2=NNC(=O)C3CC23)cc1 (stereo unspecified) | 162 to 164 °C |
| Nc1c2c(nc3cccc(F)c13)C1CCC2C1 (stereo unspecified) | 173 °C |
| CCOC(=O)C1=C(N)N=C(N(C)C)C(C(=O)OCC)C1c1cccc([N+](=O)[O-])c1 (stereo unspecified) | 149 °C |
| CC(C)(C)C(NC(=O)c1ccc(Cl)cc1)NC(=NC#N)NCc1ccncc1 (stereo unspecified) | 189 to 191 °C |
| CCOC(=O)C1=C(C)N2CCNC2=C(C(=O)OCC)C1c1cccs1 (stereo unspecified) | 134 °C |
| CN(Cc1ccc2nsnc2c1)C1CCN(C(=O)c2ccc(Nc3nccc(Nc4ccc(F)cc4)n3)cc2)CC1 | 191 to 192 °C |
| O=c1[nH]nc2n1-c1ccccc1OC2 | 198 °C |
| C#CCOc1noc2c1CN(C(=O)OC(C)(C)C)CC2 | 107 to 108 °C |
| CC(C)(C)OC(=O)NC1N=C(c2ccccc2F)c2ccccc2N(CCO)C1=O (racemic) | 200 °C |
| COc1ccc(CCSCC2CCC2)cc1 | 52 °C |
| CC(N)=CC(=O)NCCN1CCOCC1 | 86 to 93 °C |
| OCc1cn(-c2ccc(Cl)cn2)cn1 | 82 to 87 °C |
| c1ccc(COc2ccc(CCOc3ccc(CCNc4ncnc5nccnc45)cc3)cc2)cc1 | 120 to 122 °C |
| O=C(Nc1ccc(S(=O)(=O)N2CCOCC2)cc1)c1cc(Cl)ccc1[N+](=O)[O-] | 243 to 245 °C |
| O=C(O)Cn1c(=O)c(=O)[nH]c2cc(Cl)c(Cl)cc21 | 317 to 319 °C |
| Cc1oc(/C=C/c2ccccc2)nc1COc1ccc(CCCn2ccnc2)cc1 | 94 to 95 °C |
| CCOC(=O)c1nc2c(=O)[nH]c3cc(C(F)(F)F)ccc3n2c1CBr | 247 to 248 °C |
| COc1cc(OC)c(C2CCN(C)CC2O)c(O)c1C(C)=O (stereo unspecified) | 216 °C |
| CC(C)(C)OC(=O)Nc1ccc(-c2ccccc2F)cc1NC(=O)CC(=O)c1cccc([N+](=O)[O-])c1 | 167 °C |
| Cc1ccc2c(c1)OCc1nc(C(=O)O)cn1-2 | 278 to 279 °C |
| CCOc1c(N2CCC(Oc3ccc(CC(=O)N4CCN(c5ccccc5C)CC4C(N)=O)c(OC)c3)CC2)c(=O)c1=O (stereo unspecified) | 155 to 157 °C |
| CC(C)(C)c1ncc(OCc2ccccc2)c(Cl)n1 | 51 °C |

| Structure (SMILES) | melting point |
| --- | --- |
| CC(=O)OCC1OC(N=[N+]=[N-])C(OC(C)=O)C(OC(C)=O)C1OC(C)=O (stereo unspecified) | 52 to 53 °C |
| C#CCCN1C(=O)c2cccc3cccc(c23)C1=O | 191 to 193 °C |
| Cc1ccc(N2C(=O)N(CC(=O)Nc3c(C(C)C)cccc3C(C)C)C(=O)C23CCN(C(=O)OC(C)(C)C)CC3)cc1 | 227 to 229 °C |
| COc1ccc(-c2c(Cl)c(CN3C(=O)CCC3=O)nc3sc4c(c23)CCN(C(=O)C(F)(F)F)C4)cc1 | 250 to 252 °C |
| CCOC(=O)c1ccc(Nc2nc(=O)c3cccnc3s2)cc1 | 230 to 233 °C |
| CCn1c(=O)c2c(nc(/C=C/c3ccc(OC)c(OC)c3OC)n2C)n(CC)c1=O | 153 to 154 °C |
| Cc1cn2c(n1)Cc1cc3c(cc1C(c1ccc(N)cc1)=N2)OCO3 | 165 to 166 °C |
| CC(ON=c1c2nccc3cccc(c32)n2cccc12)C(=O)O (stereo unspecified) | 225 °C |
| CCCCCCCCCCCCCCCCOCCSCCOC(=O)NCc1ccccn1 | 55 to 56 °C |
| O=C(O)CCc1cn(Cc2ccc(OCc3ccc(-c4ccccc4)cn3)cc2)nc1-c1ccc(F)cc1 | 162 to 163 °C |
| N#Cc1[nH]c2ccccc2c1Cl | 150 to 154 °C |
| Cn1cc(-c2cccc(N3Cc4cc(C(C)(C)C)ccc4C3=O)c2CO)cc(Nc2ccc(C3CN(C(=O)OC(C)(C)C)C3)cn2)c1=O | 151 to 152 °C |
| CCOC(=O)C(C(C)=O)C1NC(=O)c2sccc2-n2cccc21 (stereo unspecified) | 196 °C |
| CC(=O)NCc1nc(NCCCOc2cccc(CN3CCCCC3)c2)n(C)n1 | 123 °C |
| O=C(NCCSc1ccncc1)c1ccccc1CO | 132 to 133 °C |
| O[C@]1(c2ccccc2)CCS[C@H]2CN(Cc3ccccc3)C[C@H]21 (racemic) | 137 °C |
| CCC(=O)c1ccc(=O)[nH]c1C | 173 to 175 °C |
| CC(C)(C)c1c[nH]c(S)n1 | 232 to 234 °C |
| Cc1cc2c(=O)c(C(=O)O)cn(-c3cc(N)c(F)cc3F)c2cc1F | > 280 °C |
| CCC(=N)Nc1ccccc1N1CCOCC1 | 114 °C |
| O=[N+]([O-])c1ccc(C2(Br)CCCCC2)cc1 | 83.5 to 85.5 °C |
| O=C1NCCc2c(-c3cccc(C(F)(F)F)c3)[nH]c3cccc1c23 | 212 to 214 °C |
| Cn1ncc(C(=O)N2CCOCC2)c1C(=O)Nc1ccn2nc(-c3cccnc3F)nc2c1 | 267 to 269 °C |
| Cc1cc([N+](=O)[O-])c2c(c1SC(=O)N(C)C)CCC2 | 180 °C |

| Structure (SMILES) | melting point |
| --- | --- |
| N#CC1(c2cccs2)CC1 | 118 to 122 °C |
| COC(=O)CSc1nc(Oc2ccc(N3CCNCC3)cc2)ncc1[N+](=O)[O-] | 193 to 195 °C |
| CN(C)c1ccc(CCc2nc3sc4c(n3c2CO)CCCCC4)cc1 | 168 to 170 °C |
| CC(=O)N1c2ccc(-c3nnn[nH]3)cc2C(Nc2ccc(Cl)cc2)CC1C (stereo unspecified) | 190 to 191 °C |
| CC(=O)Oc1cn(Cc2c(F)cccc2F)c2sc(-c3ccc([N+](=O)[O-])cc3)c(C)c2c1=O | 216 to 217 °C |
| O=C(NCc1ccc(Cl)cc1)c1cnc2cc(-n3cccc3)ccc2c1O | > 200 °C |
| CCOCCNC(=O)c1cc(C(=O)OC)c(O)c2ncc(Cc3ccc(F)cc3)cc12 | 174 to 175 °C |
| Cc1ccc(C(N)=S)nc1 | 172 to 173 °C |
| Cc1cc2c(-c3ccccc3C)c(NC(=O)Nc3ccc(F)cc3F)c(=O)n(C)c2cc1C | 225 to 226 °C |
| O=C(O)c1cc2cc3c(cc2oc1=O)OCO3 | 279 to 280 °C |
| COCc1cc(O)nc2nc(N)ccc12 | > 290 °C |
| CCOC(=O)C(=NO)c1cccnc1 | 137 to 138 °C |
| CC(C)(C)OC(=O)N1CCC(c2cc(F)c3oc(-c4ccc(S(C)(=O)=O)cc4F)nc3c2)CC1 | 188 to 192 °C |
| C#CCC(O)(c1cncnc1)C(C)(C)C (stereo unspecified) | 174 to 176 °C |
| Cc1c(C(F)(F)F)n(C)c(=O)n(-c2ccc(Br)cc2F)c1=O | 129 to 131 °C |
| CC(C)c1ccccc1N1/C(=N\N=C/c2ccc(-c3ncn(-c4ccc(OC(F)(F)F)cc4)n3)cc2)SCC1(O)c1ccccc1C(F)(F)F (stereo unspecified) | 115 to 118 °C |
| CC(C)(C)OC(=O)N1CCC(OCc2ccccc2)C1CC(O)Cn1cnc2ccc(F)c(F)c2c1=O (stereo unspecified) | 218 °C |
| CC(=O)CCC(=O)C1=Cc2ccccc2C1 | 85 °C |
| Cn1ccnc1Sc1ccc(Nc2c(C#N)cnc3cc(/C=C/CCOC4CCCCO4)ccc23)cc1Cl (stereo unspecified) | 217 to 220 °C |
| CS(=O)(=O)c1ccc(-c2[nH]nc(C(=O)CCCO[N+](=O)[O-])c2C2CCCCC2)cc1 | 122 to 124 °C |
| CSc1cc(SC)c2ccc3c(SC)cc(SC)c4ccc1c2c43 | 275 to 280 °C |
| CCCCC1CCCc2oc(C(=N)N)cc21 (stereo unspecified) | 243 to 245 °C |
| O=C(Nc1nccs1)C(CC1CCCC1)c1ccc(C(F)(F)F)c(F)c1 (stereo unspecified) | 194 to 195 °C |
